Results: patent US9089507B2 (priority 2006, dated 2015)
In brackets after ≈: the same amount, converted by molar mass. Like-named read-outs stand apart in the source and are kept apart here.

Tests used:
B. anthracis = experiment: microbe, parasite or virus in culture; type: cell-based, Bacillus anthracis
B. anthracis spores = settings: mouse, in vivo
[1] = female, CD-1, mouse, in vivo, 32 mg/kg
in vivo = settings: female, CD-1, mouse, 32 mg/kg

CN[C@H](CC(C)C)C(=O)N[C@H]1C(=O)N[C@@H](CC(N)=O)C(=O)N[C@H]2C(=O)N[C@H]3C(=O)N[C@H](C(=O)N[C@H](C(=O)O)c4cc(O)cc(O)c4-c4cc3ccc4O)[C@H](O[C@H]3C[C@](C)(N)[C@@H](O)[C@H](C)O3)c3ccc(c(Cl)c3)Oc3cc2cc(c3O[C@@H]2O[C@H](CO)[C@@H](O)[C@H](O)[C@H]2O[C@H]2C[C@](C)(NCc3ccc(-c4ccc(Cl)cc4)cc3)[C@@H](O)[C@H](C)O2)Oc2ccc(cc2Cl)[C@H]1O [Oritavancin, N-(4-(4-chlorophenyl)benzyl)A82846B]
MIC90 with polysorbate-80 lower than MIC90 in the absence of polysorbate-80 (B. anthracis): 16 fold
MIC90 (B. anthracis; Bacillus anthracis): 0.12 µg/mL (≈ 0.0669 µM)
spore/tissue load at the termination of the study (B. anthracis spores): ≤ 5×10^4 CFU/g tissue
time-to-peak (Tmax) ([1]; ip): 4 h
time plasma concentration remained above the MIC for the Ames strain ([1]; iv): 24 to 48 h
time-to-peak (Tmax) ([1]; iv): 0.25 h
AUC (in vivo; ip): 840 µg·h/mL
Cmax (in vivo; ip): 95 µg/mL
AUC (in vivo; iv): 950 µg·h/mL
Cmax (in vivo; iv): 270 µg/mL
